Test results from paper PMC4979060, “Structural basis of metallo-β-lactamase, serine-β-lactamase and penicillin-binding protein inhibition by cyclic boronates” (Nature Communications, 2016).

How the values were obtained:
CphA = target: T1, CphA (Aeromonas hydrophila, UniProt P26918); test: B2 MBL inhibition assay (meropenem substrate), CphA; assay type: biochemical, Aeromonas hydrophilia; details: for IC50: 10 min preincubation
T1 construct: made in house; host or cells: E. coli
Experimental: (§1) Kinetic and inhibition analyses, and ^19F NMR studies[10] against bacterial β-lactamases were performed as described. The FC-5 cephalosporin[9] was used as substrate for BcII, VIM-2, IMP-1, NDM-1, SPM-1, TEM-1 and OXA-10, meropenem[28] for CphA and nitrocefin[34] for PBP 3 and PBP 5.
(§2) In brief IC50 values were determined by preincubation of the appropriate amount of enzyme with the cyclic boronates in the assay buffers for 10 min at room temperature prior to the initiation of the assay by the addition of the appropriate substrate. The enzyme concentrations used are the following: 1 nM BcII, 100 nM VIM-2, 10 nM IMP-1, 10 nM NDM-1, 1 nM SPM-1, 1 nM TEM-1, 1 nM OXA-10, 2.5 nM CphA, 4 μM PBP 3 and 5 μM PBP 5; note that the final concentrations are stated. The assay buffers used are the following: 50 mM HEPES, pH 7.2 supplemented with 1 μg BSA, 1 μg ZnSO4 and 0.01% Triton for BcII, VIM-2, IMP-1, NDM-1 and SPM-1, 15 mM MES, pH 6.5 for CphA, 50 mM HEPES, pH 7.2 supplemented with 200 mM NaCl and 0.01% Triton 100 for TEM-1, 100 mM sodium phosphate, pH 7.2 supplemented with 50 mM NaHCO3 and 0.01% Triton 100 for OXA-10 and 50 mM HEPES, pH 7.2 supplemented with 200 mM NaCl and 0.01% Triton 100 for PBP 3 and PBP 5. The amount of substrates used is the following: 5 μM for BcII, VIM-2, IMP-1, NDM-1 and SPM-1, 10 μM for TEM-1 and OXA-10, 125 μM for CphA and 25 μM for PBP 3 and PBP 5; note that the final concentrations are stated.
(§3) The experiments were performed using a PHERAstar FS microplate reader (BMG Labtech) at room temperature (24–25 °C). All enzymes and inhibitors were prepared in the specific assay buffer. The kinetic values in this study are the means from at least three independent measurements; at least nine different concentrations of the inhibitor were used to determine the kinetic parameters (IC50). The IC50 values were determined using the software package Graph Prism 5.

SPM-1 = SPM-1 (Pseudomonas aeruginosa, UniProt Q8G9Q0); test: Fluorogenic β-lactamase inhibition assay (FC-5 substrate), SPM-1; assay type: biochemical; details: for IC50: 10 min preincubation
Chain of SPM-1 (Q8G9Q0 entry or part of it): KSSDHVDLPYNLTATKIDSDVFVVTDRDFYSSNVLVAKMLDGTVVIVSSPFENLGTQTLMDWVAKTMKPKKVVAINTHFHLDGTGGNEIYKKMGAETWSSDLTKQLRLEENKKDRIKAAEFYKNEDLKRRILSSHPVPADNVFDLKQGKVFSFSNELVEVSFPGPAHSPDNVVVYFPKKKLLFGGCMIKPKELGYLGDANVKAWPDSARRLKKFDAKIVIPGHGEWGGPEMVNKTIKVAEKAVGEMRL
Experimental: as §1, §2, §3

VIM-2 = target: T2, VIM-2 (Escherichia coli, UniProt Q5U7L7); test: Fluorogenic β-lactamase inhibition assay (FC-5 substrate), VIM-2; assay type: biochemical; details: for IC50: 10 min preincubation
T2 construct: made in house; host or cells: E. coli
Experimental: as §1, §2, §3

PBP 3 = target: T3, PBP 3 (Pseudomonas aeruginosa, UniProt G3XD46); test: PBP inhibition assay (nitrocefin substrate), PBP 3; assay type: biochemical; details: NI = no inhibition at 100 μM, read-out: IC50 (μM)/pIC50 (converted)
T3 construct: made in house; host or cells: E. coli
T3 sequence (G3XD46 whole entry): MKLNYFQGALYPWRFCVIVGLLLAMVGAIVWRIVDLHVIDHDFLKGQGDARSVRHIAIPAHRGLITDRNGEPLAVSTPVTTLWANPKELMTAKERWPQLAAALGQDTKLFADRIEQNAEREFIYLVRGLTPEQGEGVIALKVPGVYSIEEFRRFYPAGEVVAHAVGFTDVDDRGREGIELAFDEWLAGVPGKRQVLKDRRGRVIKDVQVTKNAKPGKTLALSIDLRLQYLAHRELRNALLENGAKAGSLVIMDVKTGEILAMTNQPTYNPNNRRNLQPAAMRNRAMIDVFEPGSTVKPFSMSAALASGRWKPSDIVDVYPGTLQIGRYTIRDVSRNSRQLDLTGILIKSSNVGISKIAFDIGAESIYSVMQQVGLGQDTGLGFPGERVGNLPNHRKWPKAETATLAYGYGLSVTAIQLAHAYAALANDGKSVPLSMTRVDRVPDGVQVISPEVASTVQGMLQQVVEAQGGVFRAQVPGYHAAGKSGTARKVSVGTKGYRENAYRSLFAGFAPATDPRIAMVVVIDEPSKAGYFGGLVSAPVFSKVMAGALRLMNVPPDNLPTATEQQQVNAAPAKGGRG
Experimental: as §1, §2, §3

TEM-1 = target: T4, TEM-1 (Escherichia coli, UniProt P62593); test: Fluorogenic β-lactamase inhibition assay (FC-5 substrate), TEM-1; assay type: biochemical; details: for IC50: 10 min preincubation
T4 construct: made in house; host or cells: E. coli
T4 sequence (P62593 24-286 limits assumed): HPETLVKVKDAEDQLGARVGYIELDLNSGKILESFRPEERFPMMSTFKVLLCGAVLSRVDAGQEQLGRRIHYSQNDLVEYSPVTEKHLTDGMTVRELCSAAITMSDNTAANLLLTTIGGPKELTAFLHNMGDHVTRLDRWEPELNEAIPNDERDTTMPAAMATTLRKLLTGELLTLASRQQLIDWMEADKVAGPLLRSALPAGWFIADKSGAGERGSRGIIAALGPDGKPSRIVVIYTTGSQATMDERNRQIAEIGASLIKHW
Experimental: as §1, §2, §3

BcII = target: T5, BcII (Bacillus cereus, UniProt P04190); test: Fluorogenic β-lactamase inhibition assay (FC-5 substrate), BcII; assay type: biochemical; details: for IC50: 10 min preincubation
T5 construct: made in house; host or cells: E. coli
T5 sequence (P04190 31-257): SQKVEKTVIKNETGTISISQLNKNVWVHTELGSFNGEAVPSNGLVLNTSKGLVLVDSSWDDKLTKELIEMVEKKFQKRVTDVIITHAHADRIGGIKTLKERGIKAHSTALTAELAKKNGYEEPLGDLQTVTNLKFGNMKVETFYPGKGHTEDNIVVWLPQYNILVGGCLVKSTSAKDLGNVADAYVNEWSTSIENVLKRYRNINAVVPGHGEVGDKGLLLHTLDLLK
Experimental: as §1, §2, §3

NDM-1 = target: T6, NDM-1 (Klebsiella pneumoniae, UniProt C7C422); test: Fluorogenic β-lactamase inhibition assay (FC-5 substrate), NDM-1; assay type: biochemical; details: for IC50: 10 min preincubation
T6 construct: made in house; host or cells: E. coli
T6 sequence (C7C422 29-270, looked up, species assumed): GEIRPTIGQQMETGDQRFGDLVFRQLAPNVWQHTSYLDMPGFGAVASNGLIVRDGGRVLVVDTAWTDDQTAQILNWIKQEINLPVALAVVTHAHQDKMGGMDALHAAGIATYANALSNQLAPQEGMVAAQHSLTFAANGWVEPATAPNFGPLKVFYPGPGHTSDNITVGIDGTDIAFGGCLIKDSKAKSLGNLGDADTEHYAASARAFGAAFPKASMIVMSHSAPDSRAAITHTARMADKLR
Experimental: as §1, §2, §3

OXA-10 = target: T7, OXA-10 (Pseudomonas aeruginosa, UniProt P14489); test: Fluorogenic β-lactamase inhibition assay (FC-5 substrate), OXA-10; assay type: biochemical; details: for IC50: 10 min preincubation
T7 construct: made in house; host or cells: E. coli
T7 sequence (P14489 20-266, species assumed): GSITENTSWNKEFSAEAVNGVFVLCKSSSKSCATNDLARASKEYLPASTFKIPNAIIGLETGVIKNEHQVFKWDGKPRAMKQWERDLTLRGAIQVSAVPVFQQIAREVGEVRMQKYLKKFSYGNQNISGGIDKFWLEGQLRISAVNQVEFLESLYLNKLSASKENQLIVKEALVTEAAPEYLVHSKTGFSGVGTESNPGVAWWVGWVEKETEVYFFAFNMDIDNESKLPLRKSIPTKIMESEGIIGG
Experimental: as §1, §2, §3

HEK293 cells = test: Cytotoxicity assay (MTS); assay type: cell-based; details: human HEK293 cells, concentrations up to 100 μM, 24 h
Experimental: HEK293 cells were seeded (2,000 per well) in normal DMEM in 96-well plates.[34] After 24 h, wells were dosed with titrated concentration of compounds in 1% dimethyl sulphoxide (DMSO)—final volume of media about 100 μl. Following a further 24 h incubation period, 20 μl tetrazolium (MTS, CellTiter96Aqueous One Solution (Promega)) was added to the media in each well. The plate was incubated at 37 °C, 5% CO2 for 4 h in the dark before absorbance was read at 490 nm to determine cell proliferation values.

IMP-1 = target: T8, IMP-1 (Serratia marcescens, UniProt P52699); test: Fluorogenic β-lactamase inhibition assay (FC-5 substrate), IMP-1; assay type: biochemical
T8 construct: made in house; host or cells: E. coli
T8 sequence (P52699 19-246, looked up, species assumed): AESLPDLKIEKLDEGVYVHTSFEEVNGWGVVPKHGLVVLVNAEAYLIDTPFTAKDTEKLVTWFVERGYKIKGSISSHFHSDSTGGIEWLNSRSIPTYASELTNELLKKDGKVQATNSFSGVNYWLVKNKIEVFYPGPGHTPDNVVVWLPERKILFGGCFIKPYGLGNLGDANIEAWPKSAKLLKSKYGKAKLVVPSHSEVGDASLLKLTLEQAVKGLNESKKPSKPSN
Experimental: as §1
In brief IC50 values were determined by preincubation of the appropriate amount of enzyme with the cyclic boronates in the assay buffers for 10 min at room temperature prior to the initiation of the assay by the addition of the appropriate substrate. The enzyme concentrations used are the following: 1 nM BcII, 100 nM VIM-2, 10 nM IMP-1, 10 nM NDM-1, 1 nM SPM-1, 1 nM TEM-1, 1 nM OXA-10, 2.5 nM CphA, 4 μM PBP 3 and 5 μM PBP 5; note that the final concentrations are stated. […]
The experiments were performed using a PHERAstar FS microplate reader (BMG Labtech) at room temperature (24–25 °C). […] The IC50 values were determined using the software package Graph Prism 5.

T1 sequence (P26918 28-254): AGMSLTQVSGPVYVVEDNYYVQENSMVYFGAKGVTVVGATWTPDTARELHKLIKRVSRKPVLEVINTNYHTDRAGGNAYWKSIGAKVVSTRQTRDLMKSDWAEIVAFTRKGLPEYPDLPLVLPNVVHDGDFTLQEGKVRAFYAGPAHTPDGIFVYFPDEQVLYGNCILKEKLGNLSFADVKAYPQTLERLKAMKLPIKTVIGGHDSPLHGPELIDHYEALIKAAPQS

Structure (SMILES) | pIC50 (CphA) | IC50 (CphA) | pIC50 (SPM-1) | IC50 (SPM-1) | pIC50 (VIM-2) | IC50 (VIM-2) | IC50 (PBP 3) | pIC50 (TEM-1) | IC50 (TEM-1) | pIC50 (BcII) | IC50 (BcII) | pIC50 (NDM-1) | IC50 (NDM-1) | pIC50 (OXA-10) | IC50 (OXA-10) | cytotoxicity (HEK293 cells) | pIC50 (IMP-1)
NCC1CCC(C(=O)N[C@H]2Cc3cccc(C(=O)O)c3O[B-]2(O)O)CC1 (stereo partly shown) [compound 3] | 4.68 | 20800 nM | 4.8 | 16000 nM | 7.9 | 11 nM | > 100 µM | 8.5 | 2 nM | 6.0 | 960 nM | 6.1 | 687 nM | 6.0 | 830 nM | – | –
O=C(O)c1cccc2c1O[B-](O)(O)[C@@H](NC(=O)C1CCCCC1)C2 [compound 1] | 5.3 | 4420 nM | 4.6 | 24100 nM | 7.3 | 51 nM | > 100 µM | 8.9 | 1 nM | 5.1 | 7270 nM | 5.7 | 2040 nM | 6.4 | – | Neither 1 nor 2 showed cytotoxicity | 4.6
O=C(N[C@H]1Cc2cccc(C(=O)O)c2O[B-]1(O)O)c1ccc(CN2CCNCC2)cc1 [compound 4] | > 4 | > 100000 nM | 4.8 | 13900 nM | 7.8 | 14 nM | > 100 µM | 9.4 | 0.3 nM | 6.2 | 520 nM | – | 40 nM | 5.6 | 2260 nM | – | 4.7
